The assay has as its target GTPase KRas [G12C] (Homo sapiens, UniProt P01116, G12C). The assay can be described thus: HTRF Nucleotide Exchange Assay. How it is done: The capacity of compounds to bind KRAS G12C and KRAS wildtype was quantified using a HTRF nucleotide exchange assay. Recombinant human KRAS protein (5 nM; aa1-188 KRAS WT or KRAS containing the G12C amino acid substitution, an N-terminal 6×His-tag and leader sequence), and 2 nM Europium-labeled anti-6×His antibody were mixed in assay buffer (10 mM HEPES pH7.3, 75 mM NaCl, 5 mM MgCl2, 0.05% BSA, 0.0025% NP-40 and 100 mM KF) with various concentrations of compound in a 384-well plate and a volume of 5 μL. After a 180 minute incubation at room temperature, 5 μl of 200 nM EDA-GTP-DY647P1 diluted in assay buffer was added to the plate. Following 30-minute incubation at room temperature, time-resolved fluorescence was measured on a PerkinElmer Envision plate reader. DMSO (0.3%) and unlabeled GDP (1 μM) or equivalent tool compound were used to generate the Max and Min assay signals, respectively. Data was analysed using a four-parameter logistic model to calculate IC50 values, with at least two independent replicates were performed for each compound.
On the technique in general: Time-resolved FRET reads energy transfer from a long-lived donor to a nearby acceptor.

GTPase KRas [G12C], sequence (P01116 whole entry G12C, the tested form may be a part): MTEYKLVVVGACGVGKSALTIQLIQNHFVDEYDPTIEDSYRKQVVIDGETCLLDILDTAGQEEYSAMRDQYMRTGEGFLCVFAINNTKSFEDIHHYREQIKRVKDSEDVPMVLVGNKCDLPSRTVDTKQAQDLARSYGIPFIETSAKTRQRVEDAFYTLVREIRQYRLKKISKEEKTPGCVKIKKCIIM

`C=CC(=O)N1CC2(CC(c3nc(-c4ccc(OCC(=O)N5CCOCC5)cc4)c(-c4cc(O)cc5ccccc45)n3C)C2)C1` [US20260060961, Example 29]: the IC50 (in general, the concentration that inhibits the measured activity by half) was less than 1 µM. As for `C=CC(=O)N1CC2(CC(c3nc(-c4ccc5c(cnn5C)c4)c(-c4cccc5ccccc45)n3C)C2)C1` [US20260060961, Example 34], the IC50 is more than 10 µM.

The values above are taken from BindingDB's records for patent US20260060961 (Jazz Pharmaceuticals Ireland, 2026).
